Literature values, collected in US20230066204A1 (OYE Therapeutics, Inc, priority 2019, published 2023).

System: rat
Settings: administered intravenously

SMILES: Cn1c(=O)c2c(ncn2C)n(C)c1=O [Caffeine]
- accelerating emergence from anesthesia: effective in accelerating emergence from anesthesia
